Reference: patent US11180495B2 (Abbisko Therapeutics Co., Ltd., priority 2017, dated 2021)
Read-outs that look alike come from different tables or passages of the source.

Assays:
KIT = KIT (Homo sapiens, UniProt P10721); experiment: KIT in vitro biochemical kinase study (Caliper EZ Reader); conditions: FAM-labeled polypeptide, Caliper EZ Reader II; read-out: Enzymatic experiment KIT IC50
Protocol: (§1) In the present invention, the inhibitory activity of compounds against the CSF-1R activity was determined by using CSF-1R ADP-Glo assay. The compound-mediated inhibition effect was achieved by inhibiting the production of ADP from consumption of ATP, and the activities of compounds were evaluated by using the ADP-Glo kit (Promega, cat. No. V9101). The specific experimental process was as follows: • 1. The kinase reaction performed in the present invention was carried out in a 384-well plate (Perkinelmer, cat. No. 6007290), and 3.95 nM of CSF-1R, 500 μM of ATP and 0.2 mg/mL of polypeptide (Poly (Glu4, Try1), Sigma, cat. No. P0275) were respectively weighed and added to each well: • 2. following reagents were then added to each well to reach the final reaction system: 40 mM Tris, pH 7.5, 20 mM MgCl2, 0.01% Triton X-100, 0.1 mg/mL BSA, 2.5 mM DTT and 0.1% DMSO; • 3. the reaction was conducted at 30° C. for 60 min; • 4. then an equal volume of stop solution (ADP-Glo) was added to the kinase reaction system; • 5. the mixed solution was incubated at 25° C. for 60 min, and the kinase reaction was then terminated; • 6. a two-fold volume of detection reagent was then added to each well; • 7. the mixed solution was incubated at 25° C. for 30 min; • 8. the compound IC50 value was measured by using a plate reader (Tecan, M1000) and a four-parameter curve was generated in Graphpad Prism. B. KIT/PDGFRA In Vitro Biochemical Kinase Study • 1. Preparation of 1-fold kinase buffer and stop solution • 1.1 1-fold kinase buffer: 50 mM HEPES, pH 7.5, 0.0015% Brij-35. • 1.2 stop solution: 100 mM HEPES, pH 7.5, 0.015% Brij-35, 0.2% Coating Reagent #3 50 mM EDTA • 2. Preparation of compound solution • 2.1 Dilution of compound solution • 1) The final concentration of the compound solution was 40 μM. and the concentration of the prepared stock solution was 50 times of the final concentration, i.e., 2 mM. • 2) 80 μL of 100% DMSO was added to the second well of the 96-well plate, then 20 μL of 10 mM compound solution was added, and thereby 2 mM compound solution was prepared, 60 μL of 100% DMSO was added to other wells, 20 μL of compound was taken from the second well, added to the third well and diluted by 4 times. […]

[1] = system: M-NFS-60 mouse myeloid leukemia lymphocytes; experiment: CSF-1R-related cell proliferation experiment (Cell Titer Glo); type: cell-based; conditions: 72 h, M-NFS-60 cells, 3 days, CTG
Protocol: Functional effects of compounds on cell proliferation were evaluated by using Cell Titer Glo (CTG) study in the present invention. M-NFS-60 mouse myeloid leukemia lymphocytes (cat. No. CCBJ078) from National Institutes For Food and Drug Control were cultured in the incubator under conditions of RPMI 1640 (Gibco, cat. No. 11875-119), 10% fetal bovine serum (Gibco, 10099-141), human 10 ng/mL M-CSF macrophage colony-stimulating factor (R&D, cat. No. MVN0915101), 37° C. and 5% CO2. Since ATP is an index for viable cell metabolism, CTG (Promega, #G7573) reagent is a homogeneous detection method for detecting the number of viable cells in the culture by quantifying ATP. Therefore, compound-mediated inhibition for cell proliferation/survival was evaluated by quantifying ATP in cells, and the specific experimental process was as follows: • 1. The cells were plated into a tissue-culture-medium-treated 96-well plate (Costar #3904) with 5,000 cells/well/80 μL fresh culture medium: • 2. 24 hours later, 10 μL culture medium containing testing compound with 10-fold of final concentration was added to each well; • 3. 10 μL of culture medium containing M-CSF with 10-fold of the final concentration was then added to each well: • 4. dosage effect was evaluated by testing the 3-fold serial dilutions of the compound; • 5. after the cells were incubated for 3 days at 37° C. and 5% CO2, the inhibition on cell survival was quantified after 50 μL of CTG was added and the luminescence assay was performed; • 6. the compound concentration leading to half maximal inhibitory (IC50) and the compound concentration leading to absolute half maximal inhibitory (Absolute IC50) were measured by a plate reader (M1000, Tecan) and a four-parameter curve fit in Graphpad Prism 7. D. CSF-1R-Related Cell Proliferation Experiment

PDGFRA = PDGFRA (Homo sapiens, UniProt P16234); experiment: PDGFRA in vitro biochemical kinase study (Caliper EZ Reader); conditions: FAM-labeled polypeptide, Caliper EZ Reader II; read-out: Enzymatic experiment PDGFRA IC50
PDGFRA, sequence (P16234 24-1089): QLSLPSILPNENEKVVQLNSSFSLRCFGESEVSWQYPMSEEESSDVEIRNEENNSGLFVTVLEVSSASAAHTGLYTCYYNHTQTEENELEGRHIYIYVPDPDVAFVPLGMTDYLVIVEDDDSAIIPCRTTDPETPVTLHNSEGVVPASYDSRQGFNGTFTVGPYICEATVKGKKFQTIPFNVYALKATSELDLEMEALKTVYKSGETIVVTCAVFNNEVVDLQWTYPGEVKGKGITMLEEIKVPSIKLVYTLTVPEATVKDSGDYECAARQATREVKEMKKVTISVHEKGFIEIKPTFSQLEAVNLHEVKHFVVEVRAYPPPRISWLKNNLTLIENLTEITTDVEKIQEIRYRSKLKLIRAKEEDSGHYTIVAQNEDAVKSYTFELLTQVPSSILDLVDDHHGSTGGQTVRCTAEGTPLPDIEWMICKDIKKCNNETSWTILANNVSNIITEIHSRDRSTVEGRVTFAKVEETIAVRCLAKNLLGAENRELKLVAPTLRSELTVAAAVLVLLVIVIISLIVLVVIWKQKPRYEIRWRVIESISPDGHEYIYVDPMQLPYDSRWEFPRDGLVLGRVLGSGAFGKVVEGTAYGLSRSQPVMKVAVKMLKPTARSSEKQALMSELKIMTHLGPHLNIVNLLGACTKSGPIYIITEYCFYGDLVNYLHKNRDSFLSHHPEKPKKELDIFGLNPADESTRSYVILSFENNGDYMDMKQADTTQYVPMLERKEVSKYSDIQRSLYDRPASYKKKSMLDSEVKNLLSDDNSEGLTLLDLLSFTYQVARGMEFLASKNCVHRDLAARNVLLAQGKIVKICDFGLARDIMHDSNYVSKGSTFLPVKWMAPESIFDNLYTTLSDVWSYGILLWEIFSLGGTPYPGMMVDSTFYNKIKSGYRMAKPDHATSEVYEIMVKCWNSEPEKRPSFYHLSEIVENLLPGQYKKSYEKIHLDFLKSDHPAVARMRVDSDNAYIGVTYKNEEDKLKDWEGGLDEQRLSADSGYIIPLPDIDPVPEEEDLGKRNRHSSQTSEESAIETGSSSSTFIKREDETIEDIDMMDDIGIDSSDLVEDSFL
Protocol: as §1

CSF-1R = biological target: T1, CSF-1R (Homo sapiens, UniProt P07333); experiment: CSF-1R in vitro biochemical kinase study (ADP-Glo assay); conditions: 3.95 nM CSF-1R, 500 μM ATP, 30° C. 60 min, read-out: Enzymatic experiment CSF-1R IC50
T1 construct: 3.95 nM of CSF-1R, 500 μM of ATP and 0.2 mg/mL of polypeptide
T1 sequence (P07333 20-972): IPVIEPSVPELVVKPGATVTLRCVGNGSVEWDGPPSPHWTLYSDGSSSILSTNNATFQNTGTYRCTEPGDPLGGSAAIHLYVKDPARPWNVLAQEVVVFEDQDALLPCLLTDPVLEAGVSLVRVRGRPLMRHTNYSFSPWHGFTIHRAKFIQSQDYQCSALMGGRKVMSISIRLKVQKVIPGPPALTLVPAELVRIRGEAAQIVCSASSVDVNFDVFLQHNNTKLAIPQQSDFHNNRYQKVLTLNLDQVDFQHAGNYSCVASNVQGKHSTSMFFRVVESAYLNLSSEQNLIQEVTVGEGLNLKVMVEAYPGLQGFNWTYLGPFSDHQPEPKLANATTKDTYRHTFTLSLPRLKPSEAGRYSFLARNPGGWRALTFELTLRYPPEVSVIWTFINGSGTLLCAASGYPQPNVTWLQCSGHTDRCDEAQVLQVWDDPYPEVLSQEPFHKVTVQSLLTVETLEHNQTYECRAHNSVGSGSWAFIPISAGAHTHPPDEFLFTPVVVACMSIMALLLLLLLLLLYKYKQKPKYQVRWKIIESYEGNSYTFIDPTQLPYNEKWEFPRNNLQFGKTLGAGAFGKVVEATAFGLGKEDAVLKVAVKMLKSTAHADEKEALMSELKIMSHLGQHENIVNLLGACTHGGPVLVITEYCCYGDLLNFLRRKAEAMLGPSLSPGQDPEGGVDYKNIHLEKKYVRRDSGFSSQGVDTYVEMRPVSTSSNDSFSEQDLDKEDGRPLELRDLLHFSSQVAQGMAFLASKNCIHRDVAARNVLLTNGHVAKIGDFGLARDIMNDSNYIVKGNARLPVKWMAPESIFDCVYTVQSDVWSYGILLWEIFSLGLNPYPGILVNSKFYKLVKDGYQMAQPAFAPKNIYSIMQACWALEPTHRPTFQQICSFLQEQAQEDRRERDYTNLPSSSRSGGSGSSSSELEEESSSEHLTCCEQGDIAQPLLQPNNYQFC
Protocol: In the present invention, the inhibitory activity of compounds against the CSF-1R activity was determined by using CSF-1R ADP-Glo assay. The compound-mediated inhibition effect was achieved by inhibiting the production of ADP from consumption of ATP, and the activities of compounds were evaluated by using the ADP-Glo kit (Promega, cat. No. V9101). The specific experimental process was as follows: • 1. The kinase reaction performed in the present invention was carried out in a 384-well plate (Perkinelmer, cat. No. 6007290), and 3.95 nM of CSF-1R, 500 μM of ATP and 0.2 mg/mL of polypeptide (Poly (Glu4, Try1), Sigma, cat. No. P0275) were respectively weighed and added to each well: • 2. following reagents were then added to each well to reach the final reaction system: 40 mM Tris, pH 7.5, 20 mM MgCl2, 0.01% Triton X-100, 0.1 mg/mL BSA, 2.5 mM DTT and 0.1% DMSO; • 3. the reaction was conducted at 30° C. for 60 min; • 4. then an equal volume of stop solution (ADP-Glo) was added to the kinase reaction system; • 5. the mixed solution was incubated at 25° C. for 60 min, and the kinase reaction was then terminated; • 6. a two-fold volume of detection reagent was then added to each well; • 7. the mixed solution was incubated at 25° C. for 30 min; • 8. the compound IC50 value was measured by using a plate reader (Tecan, M1000) and a four-parameter curve was generated in Graphpad Prism. B. KIT/PDGFRA In Vitro Biochemical Kinase Study • 1. Preparation of 1-fold kinase buffer and stop solution • 1.1 1-fold kinase buffer: 50 mM HEPES, pH 7.5, 0.0015% Brij-35. • 1.2 stop solution: 100 mM HEPES, pH 7.5, 0.015% Brij-35, 0.2% Coating Reagent #3 50 mM EDTA • 2. Preparation of compound solution • 2.1 Dilution of compound solution • 1) The final concentration of the compound solution was 40 μM. and the concentration of the prepared stock solution was 50 times of the final concentration, i.e., 2 mM. • 2) 80 μL of 100% DMSO was added to the second well of the 96-well plate, then 20 μL of 10 mM compound solution was added, and thereby 2 mM compound solution was prepared, 60 μL of 100% DMSO was added to other wells, 20 μL of compound was taken from the second well, added to the third well and diluted by 4 times. This serial 4-time dilution was conducted in sequence for the total of 10 concentrations. • 2.2 5-fold compound solution transferred to a reaction plate • 1) 10 μL of solution was taken from each well of the above 96-well plate and added to another 96-well plate, and 90 μL of kinase buffer was added. • 2) 5 μL of solution was taken from the above 96-well plate and added to a 384-well reaction plate. • 2.3 Kinase reaction • 1) KIT/PDGFRA kinase was added to the 1-fold kinase buffer solution to obtain a 2.5-fold kinase solution. • 2) FAM-labeled polypeptide and ATP were added to the 1-fold kinase buffer solution to obtain a 2.5-fold substrate solution. • 3) 10 μL of 2.5-fold kinase solution was added to the 384-well reaction plate, which already contained 5 μL of 5-fold compound in 10% DMSO. And the mixed solution was incubated at room temperature for 10 min. • 4) 10 μL of 2.5-fold substrate solution was added to the 384-well reaction plate. • 5) Kinase reaction and termination: the mixed solution was incubated at 28° C. for a certain period of time, and 25 μL of stop solution was added to stop the reaction. • 2.4 Data reading of Caliper EZ Reader II • 2.5 Calculation of percent inhibition and IC50 • 1) Percent conversion data were copied from the Caliper EZ Reader. • 2) Percent conversion was converted into percent inhibition data, wherein, max referred to percent conversion of the DMSO control, and min referred to percent conversion of the negative control without kinase activity. Percent inhibition=(max−conversion)/(max−min)*100. • 3) The IC50 value was fitted with XLFit excel add-in version 5.4.0.8: Fitting formula: Y=Bottom+(Top−Bottom)/(1+(IC50/X)^HillSlope).

[2] = absolute half maximal inhibitory concentration, read-out: Cytological experiment CSF-1R Absolute IC50
[3] = read-out: Cytological experiment CSF1R IC50

KIT, sequence (P10721 26-976): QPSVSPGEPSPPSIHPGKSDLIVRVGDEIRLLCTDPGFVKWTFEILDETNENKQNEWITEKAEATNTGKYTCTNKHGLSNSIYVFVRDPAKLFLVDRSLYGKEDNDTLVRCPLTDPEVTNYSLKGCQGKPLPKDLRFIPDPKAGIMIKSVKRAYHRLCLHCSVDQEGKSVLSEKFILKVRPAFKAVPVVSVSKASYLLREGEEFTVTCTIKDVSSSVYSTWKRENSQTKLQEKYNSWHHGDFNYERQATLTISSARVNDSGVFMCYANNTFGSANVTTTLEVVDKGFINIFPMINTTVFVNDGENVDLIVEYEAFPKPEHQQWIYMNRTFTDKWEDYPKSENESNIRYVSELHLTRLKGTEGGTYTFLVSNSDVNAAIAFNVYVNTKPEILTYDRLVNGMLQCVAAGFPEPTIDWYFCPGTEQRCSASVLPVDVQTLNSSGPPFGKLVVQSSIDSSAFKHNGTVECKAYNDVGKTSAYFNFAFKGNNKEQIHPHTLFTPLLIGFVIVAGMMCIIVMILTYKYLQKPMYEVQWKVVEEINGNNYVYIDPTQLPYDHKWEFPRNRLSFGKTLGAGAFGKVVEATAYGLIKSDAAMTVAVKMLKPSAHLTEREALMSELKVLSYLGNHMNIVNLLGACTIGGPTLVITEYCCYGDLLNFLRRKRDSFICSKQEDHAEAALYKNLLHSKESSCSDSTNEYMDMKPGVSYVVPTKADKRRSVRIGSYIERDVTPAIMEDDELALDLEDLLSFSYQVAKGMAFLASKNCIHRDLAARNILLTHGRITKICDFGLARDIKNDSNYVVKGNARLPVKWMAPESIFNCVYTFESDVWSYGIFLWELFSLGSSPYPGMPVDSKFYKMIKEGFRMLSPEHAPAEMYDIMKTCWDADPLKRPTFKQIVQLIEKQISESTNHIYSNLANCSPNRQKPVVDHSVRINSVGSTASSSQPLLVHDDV

IC50 (KIT) [nM] | IC50 [1, 2] [nM] | IC50 [1, 3] [nM] | IC50 (PDGFRA) [µM] | IC50 (CSF-1R) [nM] | Structure (SMILES)
13.7 | 31.5 | 40.2 | 0.681 | 32.1 | Cc1nc(-c2cnc(NC(C)C)n(C)c2=O)ccc1Cc1c[nH]c2ncc(Cl)cc12 [Example 10, 5-(5-((5-chloro-1H-pyrrolo[2,3-b]pyridin-3-yl)methyl)-6-methylpyridin-2-yl)-2-(isopropylamino)-3-methylpyrimidin-4(3H)-one]
248 | 18.8 | 46.5 | 6.91 | 27.4 | Cc1nc(-c2cnc(NC(C)C)[nH]c2=O)ccc1Cc1c[nH]c2ncccc12 [Example 1, 5-(5-((1H-pyrrolo[2,3-b]pyridin-3-yl)methyl)-6-methylpyridin-2-yl)-2-(isopropylamino)pyrimidin-4(3H)-one]
